Measurements reported in patent EP2653477B1, “SCORPION ACTIVE PEPTIDES AND PREPARATION METHODS AND APPLICATIONS THEREOF” (Wuhan More Biotechnology Co., Ltd., priority 2010, dated 2012).
Bridge positions count the residues as written; N and C are the ends. Peptide text beside a SMILES is read from it.

Assays:
Kunming mice = assay: toxicity study in mice, single intraperitoneal injection, 7 days observation; type: in vivo; conditions: 10 mg/kg intraperitoneally once (100 times the dose for animal model), observed 7 days
Protocol: 18∼20 g Kunming mice were selected, and divided into 4 groups, 8 male mice and 8 female mice for each group. The lyophilized powders of scorpion active polypeptides ADMR-011, ADMR-016, ADMR-019, ADMR-023 and ADMR-028 were dissolved with normal saline respectively, and the 3 groups of mice were injected intraperitoneally once respectively with polypeptide solution at a dose of 10 mg/kg (100 times of the dose for animal model), and the fourth group were injected with equivalent amount of normal saline as control.
After the administration, the respiration, motor and heartbeat in animals of all the groups were all normal, without significant abnormal reaction. 7 days after the administration, all the animals were conducted gross anatomy to observe the volume, color and texture of the main organs (heart, liver, spleen, lung, and kidney), and there was no macroscopic lesion. There were no significant difference between the 3 administration groups and the normal saline group.

potassium channel Kv1.3 = target: T1, potassium channel Kv1.3 (Homo sapiens, UniProt P22001); assay: whole-cell patch clamp, inhibition of Kv1.3 current in transfected COS-7 cells; type: cell-based; conditions: potassium channel Kv1.3 in COS-7 cells, read-out: polypeptide concentrations that inhibit the current by half (IC50 value)
T1 construct: expressed in transfected cells; host or cells: COS-7 cells, selected with 0.8 mg/mL geneticin
T1 sequence (P22001 whole entry): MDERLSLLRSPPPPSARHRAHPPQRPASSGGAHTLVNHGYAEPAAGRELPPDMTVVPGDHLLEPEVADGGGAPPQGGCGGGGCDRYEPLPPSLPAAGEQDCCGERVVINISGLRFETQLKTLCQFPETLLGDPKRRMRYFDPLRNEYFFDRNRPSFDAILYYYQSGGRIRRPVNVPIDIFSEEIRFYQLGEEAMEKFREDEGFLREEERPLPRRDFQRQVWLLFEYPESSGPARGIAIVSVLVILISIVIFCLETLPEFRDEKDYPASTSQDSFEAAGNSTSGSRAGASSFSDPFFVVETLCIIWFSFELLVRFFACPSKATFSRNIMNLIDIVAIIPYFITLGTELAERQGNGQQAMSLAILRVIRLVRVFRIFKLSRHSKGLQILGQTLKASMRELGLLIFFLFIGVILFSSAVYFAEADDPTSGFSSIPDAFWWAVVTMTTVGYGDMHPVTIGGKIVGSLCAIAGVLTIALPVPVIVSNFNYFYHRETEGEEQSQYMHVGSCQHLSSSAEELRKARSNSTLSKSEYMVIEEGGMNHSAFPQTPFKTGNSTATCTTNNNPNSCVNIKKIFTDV
Protocol: COS-7 cells were cultured in a DMEM medium containing 10% fetal calf serum, at 37° C, 5% CO2. The recombinant plasmids of potassium channel Kv1.3 were transfected by using a Sofast™ transfection kit, and the transfected cells were selectively cultured in a medium containing 0.8 mg/mL geneticin. The pharmacological activities of scorpion active polypeptides ADMR-011, ADMR-016, ADMR-019, ADMR-023 and ADMR-028 were tested and analyzed by using an instrument of whole-cell patch clamp (EPC-10 dual-channel patch clamp amplifier HEKA, Elektronik, Lambrecht, Germany). The setting of the experimental parameters, the collecting of data, and the applying of stimulus were all controlled by Pulse software (Elektronik, Lambrecht, Germany). The filter of the instrument was set to be 10 kHz (Bessel), and the electrode impedance was 2∼5 MΩ. After the formation of giga-seal (1∼5 GΩ) between the electrode and cell membrane, an automatic c-fast was performed, and the membrane was broken by slightly applying negative pressure, then an automatic c-slow was performed. At a holding potential of -70 mV, depolarizing pulses, incrementing in 10 mV steps, with a step width of 80 ms , were given to stimulate from -60 mV to +50 mV, and the condition of current was observed. The polypeptides ADMR-011, ADMR-016 and ADMR-019 were accurately perfused, which was achieved by MPS-2 (INBIO Inc, Wuhan, China) perfusing system. After dissolving the three scorpion active polypeptides, they were applied by spraying via DAD Drug Application System (ALA), and the tip of the tube for drug application was about 100 µm away from the cell being recorded.
It can be known from Figure 16 to Figure 20 that, the pharmacological activity of ADMR-011 on potassium channel Kvl.3 was 91 pM, the pharmacological activity of ADMR-016 on potassium channel Kvl.3 was 2.58 nM, the pharmacological activity of ADMR-019 on potassium channel Kv1.3 was 1.41 nM, and the pharmacological activity of ADMR-023 and ADMR-028 on potassium channel Kvl.3 were 0.49 nM and 0.65 nM, respectively. Therefore, they are polypeptides with potent activity that are currently found internationally.

Wistar rat EAE model = assay: EAE (multiple sclerosis) model in Wistar rats induced by GPSCH-CFA, clinical scoring; type: in vivo; conditions: 100 µg·kg^-1 subcutaneously once every day, x±s, n=10, score 0-5
Description: Experimental animals: female inbred line Wistar rats (6∼8 week old, body weigh 150±10 g) and guinea pigs (300∼400 g, purchased from Wuhan University Laboratory Animal Center) were selected.
Formulating a mixed emulsion of whole spinal cord homogenate - Freund's complete adjuvant (GPSCH-CFA): a guinea pig was executed, and the spinal cord was rapidly removed, and prepared into 50% PBS homogenate by a ultrasonic disruptor (Sonics & Materials Inc, America), which was mixed with equal amount of Freund's complete adjuvant (BCG vaccine 10 mg/ml), and was pushed back and forth with syringes until forming a water-in-oil emulsion.
Wistar rat EAE model induced by EAE: GPSCH-CFA emulsion was injected intradermally into the foot pads of both the hind legs of Wistar rats, or simultaneously injected intradermally about 1×10^10 pertussis vaccine. The rats were weighed every day, and observed for their neurological symptoms. Experimental autoimmune encephalomyelitis appeared after the rats had been raised for 2 weeks.
The rats with experimental autoimmune encephalomyelitis (EAE) were divided into […] groups randomly: normal control group (negative control group), model control group (model rats + normal saline), administration group A (model rats + ADMR-011 polypeptide), administration group B (model rats + ADMR-016 polypeptide), administration group C (model rats + ADMR-019 polypeptide), administration group D (model rats + ADMR-023 polypeptide), and administration group E (model rats + ADMR-028 polypeptide), 10 rats for each group. For the administration groups, polypeptides ADMR-011, ADMR-016, ADMR-019, ADMR-023 and ADMR-028 were injected subcutaneously respectively at a dose of 100 µg·kg^-1, once every day in the morning. For the normal control group and the model control group, equivalent amount of normal saline was injected subcutaneously, and administered continuously. […] The highest clinical score for each animal was recorded, and the average value of them was taken to be the average clinical score.
The scoring criteria were: without any clinical symptom, 0 point; disappearance of tension in the tail, and observable mild awkward gait, 1 point; weakness in both the hind limbs, which can recover after passive body flipping, 2 points; paralysis in both the hind limbs, which can not recover after passive body flipping, 3 points; tetraplegia accompanied by incontinence of urine and feces, 4 points; moribund state or death, 5 points. Table 1. Scores for rats of various experimental groups in the EAE model (-x±s)

rheumatoid arthritis = assay: pristane-induced rheumatoid arthritis in SD rats, joint score and hind foot plantar swelling; type: in vivo; parameters: key to Score of joint: clinical score 1-4: 1 joint red/swollen=1 ... severe whole-limb arthritis=4; conditions: x±s, n=10; for Score of joint: arthritis rats, polypeptides 100 µg·kg^-1 (methotrexate 1.75 µg·kg^-1) subcutaneously once every day, score 1-4; for The swelling degree after the inflammation: volume difference of hind foot before and after the modeling
Protocol: […] Female (♀) specific pathogen free (SPF) inbred line SD rats (Wuhan University Laboratory Animal Center), body weight 150±10 g, were selected, and pristane was injected intradermally at the base of the tail of rats in experimental groups at a dose of 0.2 ml/rat, after they were acclimatized in a clean-grade environment for 1 week. Rheumatoid arthritis appeared after the rats were raised for only 2 weeks.
The rats having arthritis were randomized into: normal control group (negative control group), model negative control group (model rat + normal saline), model positive control group (model rat + methotrexate), administration group A (model rat + ADMR-011 polypeptide), administration group B (model rat + ADMR-016 polypeptide), administration group C (model rat + ADMR-019 polypeptide), administration group D (model rat + ADMR-023 polypeptide), and administration group E (model rat + ADMR-028 polypeptide), 10 rats for each group. The administration groups were injected subcutaneously at a dose of 100 µg·kg^-1, once every day in the morning, and administered continuously; the normal control group and the model negative control group were injected subcutaneously with equivalent amount of normal saline; and the model positive control group were injected subcutaneously with methotrexate (MTX) at a dose of 1.75 µg·kg^-1, once every day, and administered continuously.
The highest clinical score for each animal was recorded, and the average value of them was taken to be the average clinical score. The scoring criteria were: one joint of a rat was red and swollen, 1 point; two joints of a rat were red and swollen, 2 points; all the joints of a rat were red and swollen, 3 points; severe arthritis in the entire limb of a rat, 4 points. Table 2. Arthritis scores for rats of various experimental groups (-x±s)
From day 8 of the experiment, the hind foot plantar volume of the rat was measured and recorded every other day for 21 consecutive days, and the swelling degree (mL) was calculated according to the volume difference before and after the modeling. Table 3. The swelling degree of rats in various experimental groups (-x±s)

`CC[C@H](C)[C@H](NC(=O)CNC(=O)[C@@H](N)C(C)C)C(=O)N[C@@H](CC(N)=O)C(=O)N[C@H](C(=O)N[C@@H](CCC(N)=O)C(=O)N[C@H]1CSSC[C@@H]2NC(=O)[C@H](CCC(N)=O)NC(=O)CNC(=O)[C@H](Cc3ccccc3)NC(=O)[C@H](CCCNC(=N)N)NC(=O)[C@H](CCSC)NC(=O)CNC(=O)[C@H](C)NC(=O)[C@H](CC(=O)O)NC(=O)[C@H](CCCCN)NC(=O)[C@@H]3CSSC[C@@H](C(=O)N[C@H](C(=O)N4CCC[C@H]4C(=O)N[C@@H](CCCCN)C(=O)O)[C@@H](C)O)NC(=O)[C@H](CC(=O)O)NC(=O)[C@H](CSSC[C@H](NC(=O)[C@H](CCC(N)=O)NC(=O)[C@H](CCCNC(=N)N)NC(=O)[C@H](CO)NC(=O)[C@H](Cc4c[nH]cn4)NC(=O)[C@H](CC(N)=O)NC1=O)C(=O)N[C@@H](CC(C)C)C(=O)N[C@@H](CCCCN)C(=O)N1CCC[C@H]1C(=O)N3)NC(=O)[C@H]([C@@H](C)O)NC(=O)CNC(=O)[C@H](CC(N)=O)NC(=O)[C@H]([C@@H](C)CC)NC2=O)C(C)C` [ADMR-028] (H-VGINVQCNHSRQCLKPCKDAGMRFGQCINGTCDCTPK-OH; disulfide 7-27, 13-32, 17-34 (inferred); N-terminus and C-terminus assumed) was tested, and the toxicity in mice (Kunming mice) was “no significant toxicity”, the IC50 (potassium channel Kv1.3) was 0.65 nM and the Average clinical scores (Wistar rat EAE model; 8 d) was 0.49±0.12. The Average clinical scores (Wistar rat EAE model; 10 d) was 0.95±0.22, the Average clinical scores (Wistar rat EAE model; 12 d) was 1.09±0.37 and the Average clinical scores (Wistar rat EAE model; 14 d) was 1.13±0.29. For the same compound, the Score of joint (rheumatoid arthritis; 10 d) was 1.79±0.55, the Score of joint (rheumatoid arthritis; 15 d) was 2.11±0.45 and the Score of joint (rheumatoid arthritis; 21 d) was 1.79±0.63. The “The swelling degree after the inflammation” value (“The swelling degree” below) (rheumatoid arthritis; d8) was 0.037 ± 0.013 mL, the “The swelling degree” value (rheumatoid arthritis; d15) was 0.28 ± 0.05 mL and the “The swelling degree” value (rheumatoid arthritis; d22) was 0.38 ± 0.13 mL. The “The swelling degree” value (rheumatoid arthritis; d28) was 0.31 ± 0.14 mL.
